Key:
Mia-Paca-2 = assay: MTT antiproliferative assay, Mia-Paca-2; format: cell-based, human; conditions: Homo sapiens, MIA PaCa-2, 72 h, read-out: IC50 Mia-Paca-2
BRAF = BRAF (Homo sapiens, UniProt P15056); assay: Radiometric kinase assay; format: biochemical; conditions: read-out: Kinase inhibition (%) BRAF
CDK2/cyclin A = CDK2/cyclin A (Homo sapiens, UniProt P24941); assay: Radiometric kinase assay; format: biochemical; conditions: read-out: Kinase inhibition (%) CDK2/cyclin A
AsPC-1 cells = assay: Apoptosis by Hoechst 33,258 staining; format: cell-based, human; conditions: AsPC-1, 10 and 30 µM, 48 h
HT-29 = assay: MTT antiproliferative assay, HT-29; format: cell-based, human; conditions: Homo sapiens, HT-29, 72 h, read-out: IC50 HT-29
CHEK1 = CHEK1 (Homo sapiens, UniProt O14757); assay: Radiometric kinase assay; format: biochemical; conditions: read-out: Kinase inhibition (%) CHEK1
Chain of CHEK1 (O14757 whole entry): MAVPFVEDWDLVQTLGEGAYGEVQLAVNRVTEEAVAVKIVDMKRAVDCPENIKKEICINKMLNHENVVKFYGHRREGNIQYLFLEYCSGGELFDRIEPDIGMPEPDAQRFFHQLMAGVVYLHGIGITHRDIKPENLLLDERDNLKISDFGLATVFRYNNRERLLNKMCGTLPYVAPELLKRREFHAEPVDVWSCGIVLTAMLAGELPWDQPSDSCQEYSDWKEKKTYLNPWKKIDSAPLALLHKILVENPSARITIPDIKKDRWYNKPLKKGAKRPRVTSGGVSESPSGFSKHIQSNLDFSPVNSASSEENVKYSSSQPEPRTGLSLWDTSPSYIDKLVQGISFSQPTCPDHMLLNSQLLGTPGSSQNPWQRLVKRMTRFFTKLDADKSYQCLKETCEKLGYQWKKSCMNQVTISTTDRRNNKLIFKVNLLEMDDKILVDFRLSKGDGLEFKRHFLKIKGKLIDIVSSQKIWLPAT

EGFR = EGFR (Homo sapiens, UniProt P00533); assay: Radiometric kinase assay; format: biochemical; conditions: read-out: Kinase inhibition (%) EGFR
Chain of EGFR (P00533 25-1210): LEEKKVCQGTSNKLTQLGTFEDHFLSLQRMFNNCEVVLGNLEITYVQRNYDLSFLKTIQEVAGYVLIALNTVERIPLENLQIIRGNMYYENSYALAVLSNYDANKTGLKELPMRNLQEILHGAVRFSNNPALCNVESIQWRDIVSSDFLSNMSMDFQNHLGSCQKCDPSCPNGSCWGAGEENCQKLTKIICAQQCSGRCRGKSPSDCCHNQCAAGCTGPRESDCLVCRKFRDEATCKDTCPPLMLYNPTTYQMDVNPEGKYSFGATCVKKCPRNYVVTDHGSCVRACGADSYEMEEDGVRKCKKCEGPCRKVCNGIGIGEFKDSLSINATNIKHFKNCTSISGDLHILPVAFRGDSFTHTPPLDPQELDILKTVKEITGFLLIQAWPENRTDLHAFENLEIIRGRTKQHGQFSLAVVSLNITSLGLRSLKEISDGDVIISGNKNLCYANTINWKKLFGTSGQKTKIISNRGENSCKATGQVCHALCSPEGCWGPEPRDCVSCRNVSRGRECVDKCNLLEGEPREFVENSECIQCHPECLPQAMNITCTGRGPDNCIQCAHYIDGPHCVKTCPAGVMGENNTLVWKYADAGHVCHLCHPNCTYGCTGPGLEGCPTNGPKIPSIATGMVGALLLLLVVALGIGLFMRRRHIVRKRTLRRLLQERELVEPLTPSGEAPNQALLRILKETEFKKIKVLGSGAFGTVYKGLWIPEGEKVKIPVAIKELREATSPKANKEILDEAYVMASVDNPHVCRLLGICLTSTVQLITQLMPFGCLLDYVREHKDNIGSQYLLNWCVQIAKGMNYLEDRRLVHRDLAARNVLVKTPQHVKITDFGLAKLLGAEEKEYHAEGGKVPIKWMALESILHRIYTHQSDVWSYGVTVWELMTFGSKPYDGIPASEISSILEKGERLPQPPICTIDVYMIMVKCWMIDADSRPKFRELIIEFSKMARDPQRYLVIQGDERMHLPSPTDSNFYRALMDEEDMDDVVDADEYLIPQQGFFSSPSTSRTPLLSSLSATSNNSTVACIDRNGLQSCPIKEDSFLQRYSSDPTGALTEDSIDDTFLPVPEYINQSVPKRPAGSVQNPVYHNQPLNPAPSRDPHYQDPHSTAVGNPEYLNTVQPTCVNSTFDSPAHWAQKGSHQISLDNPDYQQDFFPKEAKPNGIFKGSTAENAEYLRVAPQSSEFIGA

ABL1 = ABL1 (Homo sapiens, UniProt P00519); assay: Radiometric kinase assay; format: biochemical; conditions: read-out: Kinase inhibition (%) ABL1
Chain of ABL1 (P00519 whole entry): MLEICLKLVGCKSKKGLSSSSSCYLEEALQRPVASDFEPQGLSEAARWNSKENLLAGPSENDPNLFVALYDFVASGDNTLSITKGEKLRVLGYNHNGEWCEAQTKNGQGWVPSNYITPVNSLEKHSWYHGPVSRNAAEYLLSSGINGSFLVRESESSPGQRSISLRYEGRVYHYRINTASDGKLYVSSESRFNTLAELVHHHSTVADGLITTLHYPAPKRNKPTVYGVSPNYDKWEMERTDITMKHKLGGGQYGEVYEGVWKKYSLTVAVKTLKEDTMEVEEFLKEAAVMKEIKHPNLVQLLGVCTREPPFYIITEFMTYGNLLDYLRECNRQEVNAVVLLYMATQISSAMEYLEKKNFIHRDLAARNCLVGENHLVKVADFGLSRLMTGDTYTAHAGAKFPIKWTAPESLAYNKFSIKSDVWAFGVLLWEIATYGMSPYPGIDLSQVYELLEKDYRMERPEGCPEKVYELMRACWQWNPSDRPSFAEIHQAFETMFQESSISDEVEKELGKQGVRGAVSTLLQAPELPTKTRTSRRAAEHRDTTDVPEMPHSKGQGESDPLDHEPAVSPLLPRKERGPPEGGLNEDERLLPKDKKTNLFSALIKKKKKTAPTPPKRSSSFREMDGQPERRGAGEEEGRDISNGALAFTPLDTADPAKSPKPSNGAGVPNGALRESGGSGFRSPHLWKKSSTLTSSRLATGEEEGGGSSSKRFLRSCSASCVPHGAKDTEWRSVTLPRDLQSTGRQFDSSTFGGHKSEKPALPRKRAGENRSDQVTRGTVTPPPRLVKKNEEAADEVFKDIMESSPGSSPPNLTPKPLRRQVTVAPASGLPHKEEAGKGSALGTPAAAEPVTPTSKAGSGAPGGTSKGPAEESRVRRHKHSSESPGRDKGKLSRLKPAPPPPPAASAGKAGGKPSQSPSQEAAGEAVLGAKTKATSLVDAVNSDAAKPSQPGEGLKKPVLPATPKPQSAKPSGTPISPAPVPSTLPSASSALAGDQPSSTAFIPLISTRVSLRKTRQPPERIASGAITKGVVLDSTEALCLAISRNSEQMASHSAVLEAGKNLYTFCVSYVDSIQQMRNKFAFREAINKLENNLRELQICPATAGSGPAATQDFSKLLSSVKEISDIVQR

IGF1R = IGF1R (Homo sapiens, UniProt P08069); assay: Radiometric kinase assay; format: biochemical; conditions: read-out: Kinase inhibition (%) IGF1R
AsPC-1 = assay: MTT antiproliferative assay, AsPC-1; format: cell-based, human; conditions: Homo sapiens, ASPC1, 72 h, read-out: IC50 AsPC-1
NTRK3 (TrkC) = NTRK3 (TrkC) (Homo sapiens, UniProt Q16288); assay: Radiometric kinase assay; format: biochemical; conditions: read-out: Kinase inhibition (%) NTRK3 (TrkC)
MET = MET (Homo sapiens, UniProt P08581); assay: Radiometric kinase assay; format: biochemical; conditions: read-out: Kinase inhibition (%) MET
Chain of MET (P08581 25-1390): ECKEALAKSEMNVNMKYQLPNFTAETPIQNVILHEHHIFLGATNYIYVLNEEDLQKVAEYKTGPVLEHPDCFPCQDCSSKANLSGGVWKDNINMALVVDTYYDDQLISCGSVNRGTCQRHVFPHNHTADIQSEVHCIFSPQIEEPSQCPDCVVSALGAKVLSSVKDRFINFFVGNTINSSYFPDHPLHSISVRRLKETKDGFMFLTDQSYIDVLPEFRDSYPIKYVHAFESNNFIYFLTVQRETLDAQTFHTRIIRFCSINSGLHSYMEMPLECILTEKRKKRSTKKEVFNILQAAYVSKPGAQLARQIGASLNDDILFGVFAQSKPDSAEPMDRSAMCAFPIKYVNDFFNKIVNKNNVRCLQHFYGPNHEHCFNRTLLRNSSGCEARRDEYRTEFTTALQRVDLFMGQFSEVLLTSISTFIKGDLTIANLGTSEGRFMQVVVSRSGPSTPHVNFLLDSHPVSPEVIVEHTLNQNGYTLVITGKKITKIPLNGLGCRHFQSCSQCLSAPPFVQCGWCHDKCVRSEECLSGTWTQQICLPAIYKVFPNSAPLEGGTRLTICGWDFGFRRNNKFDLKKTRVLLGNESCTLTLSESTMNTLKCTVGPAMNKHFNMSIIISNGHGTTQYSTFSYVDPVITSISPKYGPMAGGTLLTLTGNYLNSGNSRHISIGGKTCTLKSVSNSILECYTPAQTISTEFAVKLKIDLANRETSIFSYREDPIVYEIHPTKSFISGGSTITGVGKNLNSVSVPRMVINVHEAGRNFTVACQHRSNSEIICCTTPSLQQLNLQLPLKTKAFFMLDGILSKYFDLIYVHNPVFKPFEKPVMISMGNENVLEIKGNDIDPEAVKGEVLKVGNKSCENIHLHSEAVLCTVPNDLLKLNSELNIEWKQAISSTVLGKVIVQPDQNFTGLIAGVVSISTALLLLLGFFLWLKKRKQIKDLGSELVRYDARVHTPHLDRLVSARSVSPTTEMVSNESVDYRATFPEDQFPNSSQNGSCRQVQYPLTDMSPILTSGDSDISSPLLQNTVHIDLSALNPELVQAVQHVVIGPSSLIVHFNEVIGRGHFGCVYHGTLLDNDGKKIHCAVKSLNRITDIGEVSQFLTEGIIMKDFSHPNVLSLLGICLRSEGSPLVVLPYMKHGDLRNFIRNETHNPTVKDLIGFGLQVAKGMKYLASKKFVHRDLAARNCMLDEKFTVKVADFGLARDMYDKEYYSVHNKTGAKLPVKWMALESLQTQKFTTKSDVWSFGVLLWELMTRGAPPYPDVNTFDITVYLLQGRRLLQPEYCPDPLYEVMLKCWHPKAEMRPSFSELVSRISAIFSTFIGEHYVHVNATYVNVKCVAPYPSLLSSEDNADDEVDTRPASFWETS

Chain of BRAF (P15056 whole entry): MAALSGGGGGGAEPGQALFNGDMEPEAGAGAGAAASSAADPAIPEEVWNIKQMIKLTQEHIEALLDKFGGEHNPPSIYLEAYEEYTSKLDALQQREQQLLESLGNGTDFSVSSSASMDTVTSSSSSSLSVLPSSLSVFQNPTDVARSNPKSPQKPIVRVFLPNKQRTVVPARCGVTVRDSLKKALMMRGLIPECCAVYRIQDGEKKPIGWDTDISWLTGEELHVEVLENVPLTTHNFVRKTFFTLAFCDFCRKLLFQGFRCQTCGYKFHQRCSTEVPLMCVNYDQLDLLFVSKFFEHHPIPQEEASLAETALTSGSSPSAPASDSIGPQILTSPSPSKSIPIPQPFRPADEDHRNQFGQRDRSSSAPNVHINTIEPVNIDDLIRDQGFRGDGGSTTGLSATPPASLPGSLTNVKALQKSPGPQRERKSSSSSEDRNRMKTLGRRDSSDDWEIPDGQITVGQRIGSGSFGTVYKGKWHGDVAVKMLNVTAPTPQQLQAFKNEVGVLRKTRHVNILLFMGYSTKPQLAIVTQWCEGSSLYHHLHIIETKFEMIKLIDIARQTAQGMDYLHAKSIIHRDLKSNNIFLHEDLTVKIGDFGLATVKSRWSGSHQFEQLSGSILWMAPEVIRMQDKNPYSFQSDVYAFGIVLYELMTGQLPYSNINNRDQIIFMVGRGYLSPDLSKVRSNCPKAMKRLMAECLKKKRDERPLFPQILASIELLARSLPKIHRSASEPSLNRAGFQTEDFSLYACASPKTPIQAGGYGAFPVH

- IC50 (Mia-Paca-2): 800 ± 100 nM
- inhibition at 10 µM (BRAF): -7%
- inhibition at 10 µM (CDK2/cyclin A): 9%
- IC50 (HT-29): 600 ± 200 nM
- inhibition at 10 µM (CHEK1): -12%
- inhibition at 10 µM (EGFR): -3%
- inhibition at 10 µM (ABL1): 13%
- inhibition at 10 µM (IGF1R): -11%
- IC50 (AsPC-1): 1100 ± 200 nM
- inhibition at 10 µM (NTRK3 (TrkC)): 12%
- inhibition at 10 µM (MET): -14%
Compound: O=C1C=C(Nc2ccc(OCc3cn(Cc4ccc(Cl)c(Cl)c4)nn3)cc2)C(=O)c2ccccc21 [Compound 4e, 2-((4-((1-(3,4-Dichlorobenzyl)−1H-1,2,3-triazol-4-yl)methoxy)phenyl)amino) naphthalene-1,4-dione]
- Apoptosis induction (nuclear morphology) (AsPC-1 cells): characteristic features of apoptosis including densely packed chromatin within the nucleus as well as nuclear fragmentation

Reference: paper PMC11850817 (Scientific Reports, 2025)
